# Test results published in ChEMBL document CHEMBL4706474, “Tetrahydro-2-naphthyl and 2-Indanyl Triazolopyrimidines Targeting Plasmodium falciparum Dihydroorotate Dehydrogenase Display Potent and Selective Antimalarial Activity” (J Med Chem, 2016).
# Experiments:
# [1] = Oral bioavailability in Sprague-Dawley rat at 17.5 mg/kg measured over 24 hrs by LC-MS analysis; assay type: ADME, organism-based; settings: in vivo
# Cytochrome P450 2C8 = target: T1, Cytochrome P450 2C8 (Homo sapiens, UniProt P10632); assay: Inhibition of CYP2C8 in human liver microsomes using isoform-specific probe substrates in presence of NADPH-generating system by LC-MS analysis; assay type: ADME
# T1 sequence (P10632 whole entry): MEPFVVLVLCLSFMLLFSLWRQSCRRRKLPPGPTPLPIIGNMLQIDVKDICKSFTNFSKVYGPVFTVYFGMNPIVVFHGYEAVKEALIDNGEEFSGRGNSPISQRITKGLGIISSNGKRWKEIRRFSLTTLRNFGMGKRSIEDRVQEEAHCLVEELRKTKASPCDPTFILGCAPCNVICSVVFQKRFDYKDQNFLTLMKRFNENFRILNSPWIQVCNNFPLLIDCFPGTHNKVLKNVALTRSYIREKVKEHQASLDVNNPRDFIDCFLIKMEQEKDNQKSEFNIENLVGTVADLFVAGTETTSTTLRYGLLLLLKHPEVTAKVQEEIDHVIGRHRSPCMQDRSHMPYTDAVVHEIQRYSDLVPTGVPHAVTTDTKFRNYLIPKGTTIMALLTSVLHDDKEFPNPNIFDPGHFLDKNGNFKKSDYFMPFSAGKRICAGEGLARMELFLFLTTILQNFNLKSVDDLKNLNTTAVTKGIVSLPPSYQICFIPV
# [2] = Unbound AUC (0 to infinity) in Sprague-Dawley rat at 17.5 mg/kg, po measured over 24 hrs by LC-MS analysis; assay type: ADME, organism-based; settings: in vivo
# [3] = AUC (0 to infinity) in Sprague-Dawley rat at 1.8 mg/kg, iv administered as infusion for 10 mins by LC-MS analysis; assay type: ADME, organism-based; set-up: route intravenous, time 10 min, dose 1.8 mg/kg; settings: in vivo
# [4] = Tmax in Sprague-Dawley rat at 21.3 mg/kg, po measured over 24 hrs by LC-MS analysis; assay type: ADME, organism-based; settings: in vivo
# [5] = Volume of distribution at steady state in Sprague-Dawley rat at 1.8 mg/kg, iv administered as infusion for 10 mins by LC-MS analysis; assay type: ADME, organism-based; settings: in vivo
structure (smiles),measurement,setting,value
Cc1cc(N[C@H]2CCc3ccc(Cl)cc3C2)n2nc(C(C)(F)F)nc2n1,bioavailability,[1],67%
same,IC50,Cytochrome P450 2C8,> 20 µM
same,fAUC,[2],0.89 µM·h
Cc1cc(NC2Cc3cc(F)c(F)cc3C2)n2nc(C(C)(F)F)nc2n1,AUC(0-inf),[3],27.1 µM·h
same,Tmax,[4],4 h
same,Vdss,[5],2.7 L/kg
